Laboratory results as given in patent US10633337B2, “Crystal forms of a 9-aminomethyl substituted tetracycline compound and a preparation method thereof” (KBP Biosciences Co., Ltd., priority 2016, dated 2020).

Key:
Format in all cases: physicochemical
[1] = Assay 2: stability (influencing factor tests) of crystal form II and crystal form IV; content by HPLC; conditions: for stability (conclusion in words): high temperature, high humidity and illumination
Procedure: Assay 2: Stability for Crystal Form II and Crystal Form IV of the Present Compound
Tested sample: crystal form II and crystal form IV of the compound represented by formula (1) were prepared according to Examples;
(§1) Test Conditions for Investigating the Influencing Factors:
(§2) High temperature tests: crystal form II and crystal form IV of the compound represented by formula (1) were laid on a dry and clean watch glass, and kept at 60° C.±5° C. for 15 days. Samples were taken respectively on Day 5 and Day 15. The content and the purity of the compound represented by formula (1) were measured, and compared with those of the sample taken on Day 0.
as §2, with “humidity test:” for “temperature tests:”, “25° C.±2° C., RH92.5%±5%, 25° C.±2° C., RH75%±5%, 40° C.±2° C., RH75%±5%” for “60° C.±5° C.”
as §2, with “Illumination test:” for “High temperature tests:”, “an illuminance of 4500 Lx±500 Lx in an illumination box” for “60° C.±5° C.”
(§3) Content: it was measured by using an external standard method in accordance with the High Performance Liquid Chromatography in Chinese Pharmacopoeia, Appendix V D, Edition 2010.
(§4) Purity: it was measured by using an area normalization method in accordance with the High Performance Liquid Chromatography in Chinese Pharmacopoeia, Appendix V D, Edition 2010.

[2] = Assay 1: stability (influencing factor tests: high temperature, high humidity, illumination) of amorphous form and crystal forms I, II, VII; content and purity by HPLC; conditions: for stability (conclusion in words): high temperature, high humidity and illumination
Procedure: Assay 1: Stability for Amorphous Form and Crystal Forms of the Present Compound
Tested sample: amorphous form, crystal form I, crystal form II, and crystal form VII of the compound represented by formula (1) were prepared according to Examples;
as §1
as §2, with “tests: amorphous form,” for “tests:”, “form I, crystal form II,” for “form II”, “form VII” for “form IV”, “for 14” for “for 15”, “Day 7” for “Day 5”, “Day 14.” for “Day 15.”
(§5) High humidity test: amorphous form, crystal form I, crystal form II, and crystal form VII of the compound represented by formula (1) were laid on a dry and clean watch glass, and kept at 25° C.±2° C., RH75%±5%, 40° C.±2° C., RH75%±5% for 14 days. Samples were taken respectively on Day 7 and Day 14. The content and the purity of the compound represented by formula (1) were measured, and compared with those of the sample taken on Day 0.
as §5, with “Illumination” for “High humidity”, “an illuminance of 4500 Lx±500 Lx in an illumination box” for “25° C.±2° C., RH75%±5%, 40° C.±2° C., RH75%±5%”
as §3, §4

[3] = Investigation of the stability of crystal form III at high humidity
Procedure: It is also found in the study that not all of crystal forms I, II, III, IV, V, VI, VII and VIII of the compound represented by formula (1) have better stability than the amorphous form. Specifically, in the investigation of the stability of crystal form III, the content of the compound is reduced by about 10% after being placed in a high humidity condition of 40° C./75%±5% RH for 14 days.
The data for investigating the stability was mentioned as above.

[4] = Day 0 (start of stability test)
[5] = High temperature 60° C., Day 14
[6] = Illumination 45001x ± 5001x, Day 14

Content ([1]; 25° C./RH 75% ± 5%, Day 15) | Content ([1]; 25° C./RH 92.5% ± 5%, Day 15) | Content ([1]; 40° C./RH 75% ± 5%, Day 15) | Content ([2]; 25° C./75% ± 5% RH, Day 7) | Purity ([2]; 25° C./75% ± 5% RH, Day 7) | Content ([2]; 25° C./75% ± 5% RH, Day 14) | Purity ([2]; 25° C./75% ± 5% RH, Day 14) | Content ([2]; 40° C./75% ± 5% RH, Day 7) | Purity ([2]; 40° C./75% ± 5% RH, Day 7) | Content ([2]; 40° C./75% ± 5% RH, Day 14) | Purity ([2]; 40° C./75% ± 5% RH, Day 14) | Content [2, 4] | Purity [2, 4] | Content ([2]; High temperature 60° C., Day 7) | Purity ([2]; High temperature 60° C., Day 7) | Content [2, 5] | Purity [2, 5] | Content [2, 6] | Purity [2, 6] | stability (conclusion in words) [2] | Structure (SMILES) | other results
98.3% | 96.7% | 98.0% | 95.9% | 96.3% | 96.1% | 96.2% | 96.5% | 96.2% | 96.1% | 96.1% | 94.5% | 96.4% | 95.8% | 96.1% | 96.0% | 96.0% | 96.1% | 96.2% | relatively high stability | CN(C)c1cc(CN2CC3CC3C2)c(O)c2c1C[C@H]1C[C@H]3[C@H](N(C)C)C(O)=C(C(N)=O)C(=O)[C@@]3(O)C(O)=C1C2=O (single isomer, unassigned) [Crystal form II] | Content ([1]; 60° C., Day 15): 97.0%; Content ([1]; 4500 Lx ± 500 Lx, Day 15): 97.8%; Content [1, 4]: 98.4%; stability (conclusion in words) [1]: higher stability than crystal form IV
93.1% | 90.3% | 74.6% |  |  |  |  |  |  |  |  |  |  |  |  |  |  |  |  |  | CN(C)c1cc(CN2CC3CC3C2)c(O)c2c1C[C@H]1C[C@H]3[C@H](N(C)C)C(O)=C(C(N)=O)C(=O)[C@@]3(O)C(O)=C1C2=O (single isomer, unassigned) [Crystal form IV] | Content ([1]; 60° C., Day 15): 88.6%; Content ([1]; 4500 Lx ± 500 Lx, Day 15): 74.6%; Content [1, 4]: 97.0%; reduction of content ([1]; high temperature of 60° C. for 15 days): about 10%; stability (conclusion in words) [1]: changed very much; reduction of content ([1]; illumination 4500 Lx±500 Lx for 15 days): 23.1%; stability compared with amorphous form ([1]; illumination condition or high temperature condition): worse stability than the amorphous form
 |  |  | 98.7% | 97.1% | 93.3% | 96.7% | 94.7% | 94.9% | 89.6% | 92.9% | 97.1% | 98.0% | 94.5% | 95.8% | 90.5% | 94.3% | 85.0% | 92.9% | unstable | CN(C)c1cc(CN2CC3CC3C2)c(O)c2c1C[C@H]1C[C@H]3[C@H](N(C)C)C(O)=C(C(N)=O)C(=O)[C@@]3(O)C(O)=C1C2=O (stereo partly drawn) [Amorphous form, (4S,4aS,5aR,12aS)-9-(3-azabicyclo[3.1.0]hexan-3-ylmethyl)-4,7-bis(dimethylamino)-3,10,12,12a-tetrahydroxy-1,11-dioxo-1,4,4a,5,5a,6,11,12a-octahydrotetracene-2-carboxamide] | reduction of content ([2]; after 14 days at a high temperature of 60° C.): 6.6%; reduction of content ([2]; after 14 days at high humidity 40° C./75%±5% RH): 7.5%; reduction of content ([2]; after 14 days under illumination of 4500 lx±500 lx): 12.1%
 |  |  | 97.2% | 98.1% | 98.2% | 98.1% | 97.4% | 98.0% | 97.5% | 97.8% | 97.0% | 98.2% | 97.7% | 97.9% | 97.3% | 97.7% | 97.8% | 98.1% | relatively high stability | CN(C)c1cc(CN2CC3CC3C2)c(O)c2c1C[C@H]1C[C@H]3[C@H](N(C)C)C(O)=C(C(N)=O)C(=O)[C@@]3(O)C(O)=C1C2=O (stereo partly drawn) [Crystal form I, (4S,4aS,5aR,12aS)-9-(3-azabicyclo[3.1.0]hexan-3-ylmethyl)-4,7-bis(dimethylamino)-3,10,12,12a-tetrahydroxy-1,11-dioxo-1,4,4a,5,5a,6,11,12a-octahydrotetracene-2-carboxamide] | 
 |  |  |  |  |  |  |  |  |  |  |  |  |  |  |  |  |  |  |  | CN(C)c1cc(CN2CC3CC3C2)c(O)c2c1C[C@H]1C[C@H]3[C@H](N(C)C)C(O)=C(C(N)=O)C(=O)[C@@]3(O)C(O)=C1C2=O (stereo partly drawn) [Crystal form III, (4S,4aS,5aR,12aS)-9-(3-azabicyclo[3.1.0]hexan-3-ylmethyl)-4,7-bis(dimethylamino)-3,10,12,12a-tetrahydroxy-1,11-dioxo-1,4,4a,5,5a,6,11,12a-octahydrotetracene-2-carboxamide] | reduction of content ([3]; high humidity 40° C./75%±5% RH for 14 days): about 10%; stability compared with amorphous form ([3]; high humidity condition): worse stability than the amorphous form
 |  |  | 96.1% | 97.1% | 95.8% | 97.2% | 94.6% | 96.4% | 94.5% | 95.7% | 95.8% | 97.4% | 95.2% | 96.8% | 93.6% | 96.2% | 95.7% | 96.6% | relatively high stability | CN(C)c1cc(CN2CC3CC3C2)c(O)c2c1C[C@H]1C[C@H]3[C@H](N(C)C)C(O)=C(C(N)=O)C(=O)[C@@]3(O)C(O)=C1C2=O (stereo partly drawn) [Crystal form VII, (4S,4aS,5aR,12aS)-9-(3-azabicyclo[3.1.0]hexan-3-ylmethyl)-4,7-bis(dimethylamino)-3,10,12,12a-tetrahydroxy-1,11-dioxo-1,4,4a,5,5a,6,11,12a-octahydrotetracene-2-carboxamide] | 
